Reference: publication PMC6465334, “Functional Analysis of MsepOR13 in the Oriental Armyworm Mythimna separata (Walker)” (Frontiers in Physiology, 2019)
pEC50: −log10 of the molar value.

How the values were obtained:
[1] = biological target: T1, MsepOR13/Orco (MsepOR13/MsepOrco) (Mythimna separata, UniProt A0A650FIP0); test: two-electrode voltage clamp, Xenopus oocytes, single concentration; type: cell-based; settings: MsepOrco co-expressed; holding potential -80 mV; 15 s exposure at 10^-4 M; agonist
T1 construct: gene OR13; full-length untagged MsepOR13, 408 aa (ORF 1227 bp), cloned from adult antennal cDNA; pT7Ts cRNA, Xenopus oocytes; with Odorant receptor coreceptor
T1 sequence (A0A650FIP0 1-408): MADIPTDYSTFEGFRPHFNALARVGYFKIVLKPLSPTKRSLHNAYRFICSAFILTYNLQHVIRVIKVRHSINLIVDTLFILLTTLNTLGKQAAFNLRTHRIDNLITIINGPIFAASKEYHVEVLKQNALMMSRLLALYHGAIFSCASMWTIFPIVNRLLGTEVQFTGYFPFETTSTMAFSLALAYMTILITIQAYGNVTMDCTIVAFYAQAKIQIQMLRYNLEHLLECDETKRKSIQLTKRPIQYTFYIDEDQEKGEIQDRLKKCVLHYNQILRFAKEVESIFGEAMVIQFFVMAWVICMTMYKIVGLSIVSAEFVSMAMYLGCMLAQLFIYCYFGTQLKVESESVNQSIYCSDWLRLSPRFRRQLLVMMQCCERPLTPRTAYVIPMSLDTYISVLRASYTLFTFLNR
T1 sequence (B5MEJ5 1-473 partner): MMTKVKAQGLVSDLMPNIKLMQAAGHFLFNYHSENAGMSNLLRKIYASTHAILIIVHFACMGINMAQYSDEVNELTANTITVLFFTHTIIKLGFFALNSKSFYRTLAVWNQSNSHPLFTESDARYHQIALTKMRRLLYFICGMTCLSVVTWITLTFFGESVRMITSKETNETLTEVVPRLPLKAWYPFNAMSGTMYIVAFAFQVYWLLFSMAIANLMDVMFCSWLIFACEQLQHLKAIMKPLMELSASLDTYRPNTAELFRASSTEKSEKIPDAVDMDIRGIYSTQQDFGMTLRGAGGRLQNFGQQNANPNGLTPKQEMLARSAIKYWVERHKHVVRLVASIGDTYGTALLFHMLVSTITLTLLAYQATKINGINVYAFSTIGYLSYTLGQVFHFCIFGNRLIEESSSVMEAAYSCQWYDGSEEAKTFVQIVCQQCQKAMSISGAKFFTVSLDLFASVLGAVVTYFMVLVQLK

[2] = biological target: T1, MsepOR13/Orco (MsepOR13/MsepOrco); test: two-electrode voltage clamp, Xenopus oocytes, dose-response; type: cell-based

SMILES: CC(=O)c1ccccc1 [Acetophenone]
- current response at 10^-4 M [1]: 523.3 nA

SMILES: CCCCCCO [1-Hexanol]
- current response at 10^-4 M [1]: 60 nA

SMILES: C=CCc1ccc(OC)c(OC)c1 [Methyl eugenol]
- current response at 10^-4 M [1]: ~ 1655 nA

SMILES: C=CCc1ccc(O)c(OC)c1 [Eugenol]
- pEC50 [2]: 5.41
